USRE50528E1, “Compounds and compositions for modulating EGFR mutant kinase activities” (Yuhan Corporation, priority 2014, dated 2025)

What was measured:
EGFR mutant T790M = molecular target: T1, EGFR mutant T790M (Homo sapiens, UniProt P00533, T790M); assay: Kinase inhibition assay, EGFR mutant T790M; conditions: biochemical potency;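 further: truncated human EGFR mutant enzyme preincubated two hours with compound, then ATP plus ULight-PolyGT peptide for one hour, Europium-labeled antibody LANCE detection, IC50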
T1 construct: truncated human JAK3, EGFR mutants such as del E746-A750; purchased Carna Biosciences

[1] = molecular target: T2, EGFR mutant Del19 (E746-A750) (Homo sapiens, UniProt P00533, DEL746-750); assay: Kinase inhibition assay, EGFR del E746-A750; type: biochemical; conditions: read-out: EGFR mutants Del19 (E746-A750);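 further: truncated human EGFR mutant kinase, two-hour preincubation with compound, then one-hour reaction with ATP and ULight-PolyGT peptide, LANCE Europium-antibody phosphorylation readout, IC50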
T2 construct: truncated human JAK3, EGFR mutants such as del E746-A750; purchased Carna Biosciences

EGFR mutant L858R = molecular target: T3, EGFR mutant L858R (Homo sapiens, UniProt P00533, L858R); assay: Kinase inhibition assay, EGFR L858R; type: biochemical; conditions: read-out: EGFR mutants L858R;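 further: truncated human EGFR L858R kinase with compound preincubation, ULight-PolyGT peptide phosphorylation read by Europium-antibody Lance detection, IC50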
T3 construct: truncated human JAK3, EGFR mutants such as del E746-A750; purchased Carna Biosciences

EGFR mutant L858R/T790M = molecular target: T4, EGFR mutant L858R/T790M (Homo sapiens, UniProt P00533, L858R/T790M); assay: Kinase inhibition assay, EGFR L858R/T790M; type: biochemical; conditions: read-out: EGFR mutants L858R/T790M;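 further: truncated human enzyme preincubated two hours with compound, then one hour with one millimolar ATP and ULight-PolyGT peptide, Europium-labeled antibody detection, IC50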
T4 construct: truncated human JAK3, EGFR mutants such as del E746-A750; purchased Carna Biosciences

EGFR mutant Del19/T790M = molecular target: T5, EGFR mutant Del19/T790M (Homo sapiens, UniProt P00533, DEL746-750/T790M); assay: Kinase inhibition assay, EGFR del E746-A750/T790M; type: biochemical; conditions: read-out: EGFR mutants Del19/T790M
T5 construct: truncated human JAK3, EGFR mutants such as del E746-A750; purchased Carna Biosciences

JAK3 = molecular target: T6, JAK3 (Homo sapiens, UniProt P52333); assay: Kinase inhibition assay, JAK3; conditions: biochemical potency;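 further: IC50 against purified truncated human JAK3 preincubated with compound, then reacted with ATP and ULight-Jak1 peptide, phosphorylation read by Europium-labeled antibody LANCE detection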
T6 construct: EGFR and JAK3 (JH1domain-catalytic) kinases, and mutant forms thereof; purchased Carna Biosciences

SYK = molecular target: T7, SYK (Homo sapiens, UniProt P43405); assay: Kinase inhibition assay, SYK; type: biochemical; conditions: biochemical potency;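 further: purified full-length human SYK pre-incubated 30 min with compound, then ULight-TK peptide phosphorylation for 1 h, detected with Europium-labeled antibody in Lance buffer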
T7 construct: Purified human, full-length SYK, KDR; purchased Carna Biosciences

KDR = molecular target: T8, KDR (Homo sapiens, UniProt P35968); assay: Kinase inhibition assay, KDR; type: biochemical; conditions: biochemical potency;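 further: purified full-length human KDR, 30 min preincubation with compound, then 1 h reaction with ATP and Ulight-Jak1 peptide substrate, phosphorylation read by Lance Europium antibody detection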
T8 construct: Purified human, full-length SYK, KDR; purchased Carna Biosciences

H2073 (EGFR wildtype) = assay: Cell viability assay, H2073; type: cell-based; conditions: NCI-H2073; cellular potency; 72-hour incubation; ATPLite;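 further: NSCLC cell line whose survival relies on wildtype EGFR, treated with serially diluted compound, cytotoxic effect judged from remaining cell viability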
[2] = test system: PC9 (EGFR del E746-A750 mutant); assay: Cell viability assay, PC9; type: cell-based;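 further: NSCLC PC9 cells, whose viability relies on EGFR del E746-A750, exposed to serially diluted compound for 72 h at 37 °C, ATPLite read-out, IC50, H2073 as EGFR wildtype line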
[3] = test system: H1975 (EGFR L858R/T790M mutant); assay: Cell viability assay, H1975; type: cell-based;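 further: NSCLC cells whose survival relies on EGFR L858R/T790M, exposed 72 h to serially diluted compound, ATP-based viability readout, with the H2073 line (wildtype EGFR dependent) as wildtype comparator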
p-EGFR wildtype = molecular target: T9, p-EGFR wildtype (Homo sapiens, UniProt P00533); assay: Western analysis, H1299 p-EGFR wildtype; type: cell-based
T9 construct: endogenous in cells; host or cells: H1299

p-EGFR del E746-A750 = molecular target: T10, p-EGFR del E746-A750 (Homo sapiens, UniProt P00533, DEL746-750); assay: Western analysis, PC9 p-EGFR del E746-A750; type: cell-based; conditions: for Selectivity over wildtype: p-wildtype over p-EGFR del19: H1299 vs PC9
T10 construct: phosphorylation of mutant EGFR in NSCLC lines PC9; endogenous in cells; host or cells: PC9

p-EGFR L858R/T790M = molecular target: T11, p-EGFR L858R/T790M (Homo sapiens, UniProt P00533, L858R/T790M); assay: Western analysis, H1975 p-EGFR L858R/T790M; type: cell-based; conditions: for Selectivity over wildtype: p-wildtype over p-EGFR L858R, T790M: H1299 vs H1975
T11 construct: phosphorylation of mutant EGFR in NSCLC lines H1975; endogenous in cells; host or cells: H1975
T11 sequence (P00533 25-1210 T790M/L858R): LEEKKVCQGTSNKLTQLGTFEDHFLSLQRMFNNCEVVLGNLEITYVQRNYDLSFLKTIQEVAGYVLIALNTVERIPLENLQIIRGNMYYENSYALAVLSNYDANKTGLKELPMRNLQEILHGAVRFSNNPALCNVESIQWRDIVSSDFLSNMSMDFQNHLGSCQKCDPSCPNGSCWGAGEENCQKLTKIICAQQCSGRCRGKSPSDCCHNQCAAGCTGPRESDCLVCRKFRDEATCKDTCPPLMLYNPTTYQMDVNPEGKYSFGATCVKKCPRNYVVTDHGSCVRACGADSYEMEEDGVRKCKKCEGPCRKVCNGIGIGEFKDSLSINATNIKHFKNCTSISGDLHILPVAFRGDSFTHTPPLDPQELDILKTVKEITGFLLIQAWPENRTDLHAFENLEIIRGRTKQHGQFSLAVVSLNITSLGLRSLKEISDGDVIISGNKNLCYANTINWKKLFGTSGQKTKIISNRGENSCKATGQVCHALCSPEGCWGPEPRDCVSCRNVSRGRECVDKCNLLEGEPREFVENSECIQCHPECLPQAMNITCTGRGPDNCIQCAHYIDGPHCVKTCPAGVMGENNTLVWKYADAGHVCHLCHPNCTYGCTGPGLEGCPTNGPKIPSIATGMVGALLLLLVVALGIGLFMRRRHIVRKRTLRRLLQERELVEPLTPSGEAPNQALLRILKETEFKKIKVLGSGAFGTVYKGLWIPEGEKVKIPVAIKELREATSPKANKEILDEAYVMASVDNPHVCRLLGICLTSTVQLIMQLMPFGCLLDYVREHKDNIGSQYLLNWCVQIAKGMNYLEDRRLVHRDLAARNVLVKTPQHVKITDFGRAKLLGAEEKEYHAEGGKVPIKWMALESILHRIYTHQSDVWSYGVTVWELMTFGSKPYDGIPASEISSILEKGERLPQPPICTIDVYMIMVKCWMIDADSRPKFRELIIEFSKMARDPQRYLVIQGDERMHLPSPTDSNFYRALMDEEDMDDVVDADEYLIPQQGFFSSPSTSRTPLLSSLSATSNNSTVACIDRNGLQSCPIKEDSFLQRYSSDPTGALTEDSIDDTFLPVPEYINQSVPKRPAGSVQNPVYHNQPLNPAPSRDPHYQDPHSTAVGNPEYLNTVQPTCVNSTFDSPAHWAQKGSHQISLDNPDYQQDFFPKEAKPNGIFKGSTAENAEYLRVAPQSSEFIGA

T10 sequence (P00533 with tags, fused parts or gaps DEL746-750): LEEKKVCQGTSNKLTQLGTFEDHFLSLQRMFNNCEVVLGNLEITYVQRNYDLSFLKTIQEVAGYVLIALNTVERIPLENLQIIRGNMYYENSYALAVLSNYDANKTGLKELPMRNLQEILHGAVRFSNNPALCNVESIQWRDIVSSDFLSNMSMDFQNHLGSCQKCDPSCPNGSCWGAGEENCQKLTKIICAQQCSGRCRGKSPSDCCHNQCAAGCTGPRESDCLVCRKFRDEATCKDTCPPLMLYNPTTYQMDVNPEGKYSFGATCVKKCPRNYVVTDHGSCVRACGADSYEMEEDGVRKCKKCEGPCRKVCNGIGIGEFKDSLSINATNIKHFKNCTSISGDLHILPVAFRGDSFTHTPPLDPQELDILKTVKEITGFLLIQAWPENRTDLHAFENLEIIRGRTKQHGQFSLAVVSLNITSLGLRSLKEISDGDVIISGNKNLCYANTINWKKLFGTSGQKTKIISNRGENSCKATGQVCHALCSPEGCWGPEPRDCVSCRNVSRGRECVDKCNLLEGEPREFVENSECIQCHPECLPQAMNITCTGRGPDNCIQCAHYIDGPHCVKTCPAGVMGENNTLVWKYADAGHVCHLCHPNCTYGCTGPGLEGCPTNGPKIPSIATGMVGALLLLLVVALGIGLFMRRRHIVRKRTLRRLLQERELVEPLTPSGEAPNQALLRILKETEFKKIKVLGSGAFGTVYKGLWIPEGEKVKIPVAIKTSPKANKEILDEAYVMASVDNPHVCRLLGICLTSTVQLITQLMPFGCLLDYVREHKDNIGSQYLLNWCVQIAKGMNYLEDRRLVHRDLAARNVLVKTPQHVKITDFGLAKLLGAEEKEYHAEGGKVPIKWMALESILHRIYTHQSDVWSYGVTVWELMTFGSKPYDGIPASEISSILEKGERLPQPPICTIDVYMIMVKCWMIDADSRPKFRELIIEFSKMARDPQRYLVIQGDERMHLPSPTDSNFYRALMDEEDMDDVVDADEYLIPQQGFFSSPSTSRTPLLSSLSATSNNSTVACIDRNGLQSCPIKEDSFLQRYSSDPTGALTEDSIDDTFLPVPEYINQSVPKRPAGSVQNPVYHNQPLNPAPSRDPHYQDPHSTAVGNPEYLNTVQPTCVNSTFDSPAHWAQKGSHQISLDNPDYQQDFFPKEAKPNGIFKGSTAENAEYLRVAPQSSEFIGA
T9 sequence (P00533 25-1210): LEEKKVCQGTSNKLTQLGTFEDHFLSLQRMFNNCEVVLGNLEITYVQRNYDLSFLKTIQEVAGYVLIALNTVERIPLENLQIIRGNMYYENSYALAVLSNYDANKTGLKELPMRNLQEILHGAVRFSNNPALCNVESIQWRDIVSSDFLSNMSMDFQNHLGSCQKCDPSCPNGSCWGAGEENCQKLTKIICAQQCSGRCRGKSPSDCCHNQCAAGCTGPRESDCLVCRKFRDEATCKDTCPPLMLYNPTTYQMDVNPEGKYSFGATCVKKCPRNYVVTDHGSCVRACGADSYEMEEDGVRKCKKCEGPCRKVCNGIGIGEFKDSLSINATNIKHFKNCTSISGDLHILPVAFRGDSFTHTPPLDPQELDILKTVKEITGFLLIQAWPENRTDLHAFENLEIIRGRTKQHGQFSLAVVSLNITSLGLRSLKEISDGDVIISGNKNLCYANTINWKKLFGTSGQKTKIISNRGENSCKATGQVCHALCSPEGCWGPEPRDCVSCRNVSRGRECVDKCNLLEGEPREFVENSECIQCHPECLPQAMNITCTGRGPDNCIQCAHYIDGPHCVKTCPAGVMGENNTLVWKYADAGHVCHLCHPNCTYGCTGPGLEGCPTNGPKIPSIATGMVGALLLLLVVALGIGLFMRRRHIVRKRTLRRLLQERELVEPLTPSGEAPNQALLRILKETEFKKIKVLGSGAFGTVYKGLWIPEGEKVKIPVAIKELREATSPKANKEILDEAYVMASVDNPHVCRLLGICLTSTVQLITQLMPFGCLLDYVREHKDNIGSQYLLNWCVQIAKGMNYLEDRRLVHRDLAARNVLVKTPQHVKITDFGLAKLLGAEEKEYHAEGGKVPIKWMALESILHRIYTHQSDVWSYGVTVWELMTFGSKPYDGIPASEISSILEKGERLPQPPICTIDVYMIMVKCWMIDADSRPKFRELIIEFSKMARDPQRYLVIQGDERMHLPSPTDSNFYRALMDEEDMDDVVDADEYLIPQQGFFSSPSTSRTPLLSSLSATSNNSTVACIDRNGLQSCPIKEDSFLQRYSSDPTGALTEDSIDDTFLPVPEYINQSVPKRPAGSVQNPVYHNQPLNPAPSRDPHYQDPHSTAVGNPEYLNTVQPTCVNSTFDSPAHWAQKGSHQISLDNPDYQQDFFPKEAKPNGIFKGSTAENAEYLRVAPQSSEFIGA
T4 sequence (P00533 669-1210 T790M/L858R limits assumed): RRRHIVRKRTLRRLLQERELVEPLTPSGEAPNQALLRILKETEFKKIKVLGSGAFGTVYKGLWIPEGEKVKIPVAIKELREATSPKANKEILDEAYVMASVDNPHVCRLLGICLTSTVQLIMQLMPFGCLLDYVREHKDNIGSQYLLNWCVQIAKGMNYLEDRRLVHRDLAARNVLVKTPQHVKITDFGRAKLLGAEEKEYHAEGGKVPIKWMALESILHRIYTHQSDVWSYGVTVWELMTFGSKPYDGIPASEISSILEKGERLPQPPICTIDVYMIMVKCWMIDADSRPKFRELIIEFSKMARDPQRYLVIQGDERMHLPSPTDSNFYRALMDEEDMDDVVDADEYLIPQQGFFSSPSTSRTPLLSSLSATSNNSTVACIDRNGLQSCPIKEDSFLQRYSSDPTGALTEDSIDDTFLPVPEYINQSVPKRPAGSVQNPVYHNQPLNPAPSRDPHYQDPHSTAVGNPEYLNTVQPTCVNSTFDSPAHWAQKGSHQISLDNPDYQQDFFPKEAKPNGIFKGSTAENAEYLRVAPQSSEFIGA
T6 sequence (P52333 822-1111 limits assumed): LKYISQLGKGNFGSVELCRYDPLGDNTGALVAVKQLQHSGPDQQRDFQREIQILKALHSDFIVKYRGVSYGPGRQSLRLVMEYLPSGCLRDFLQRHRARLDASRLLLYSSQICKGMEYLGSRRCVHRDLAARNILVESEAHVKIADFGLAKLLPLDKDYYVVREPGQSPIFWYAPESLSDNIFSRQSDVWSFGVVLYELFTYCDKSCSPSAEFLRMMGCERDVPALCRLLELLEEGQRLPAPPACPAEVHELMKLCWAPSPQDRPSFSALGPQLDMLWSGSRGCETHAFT
T2 sequence (P00533 with tags, fused parts or gaps DEL746-750 limits assumed): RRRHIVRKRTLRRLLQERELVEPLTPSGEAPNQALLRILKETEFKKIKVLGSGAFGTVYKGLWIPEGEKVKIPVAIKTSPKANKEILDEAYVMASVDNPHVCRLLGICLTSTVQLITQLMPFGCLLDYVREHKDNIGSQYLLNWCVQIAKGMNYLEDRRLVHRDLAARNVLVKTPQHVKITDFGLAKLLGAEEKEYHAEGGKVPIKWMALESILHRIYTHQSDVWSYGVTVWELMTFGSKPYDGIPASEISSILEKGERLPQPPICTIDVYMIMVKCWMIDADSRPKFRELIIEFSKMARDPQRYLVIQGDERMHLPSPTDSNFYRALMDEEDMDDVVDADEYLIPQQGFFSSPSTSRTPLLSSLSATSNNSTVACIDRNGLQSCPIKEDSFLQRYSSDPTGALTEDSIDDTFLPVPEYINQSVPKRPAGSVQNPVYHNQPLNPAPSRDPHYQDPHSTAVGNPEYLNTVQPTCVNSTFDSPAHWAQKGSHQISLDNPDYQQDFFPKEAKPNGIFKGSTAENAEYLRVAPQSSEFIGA

With `C=CC(=O)Nc1cc(Nc2ncc(C)c(-n3cc(CN4C[C@H](O)[C@H](OC)C4)c(C)n3)n2)c(OC)cc1N1CCOCC1` [Compound 26, N-(5-(4-(4-(((3S,4R)-3-hydroxy-4-methoxypyrrolidin-1-yl)methyl)-3-methyl-1H-pyrazol-1-yl)-5-methylpyrimidin-2-ylamino)-4-methoxy-2-morpholinophenyl)acrylamide] the IC50 (EGFR mutant T790M) was < 20 nM, the IC50 [1] was < 20 nM and the IC50 (EGFR mutant L858R) was < 20 nM. For the same compound, the IC50 (EGFR mutant L858R/T790M) was < 20 nM, the IC50 (EGFR mutant Del19/T790M) was < 20 nM and the IC50 (JAK3) was < 20 nM. For the same compound, the IC50 (SYK) was 201 to 1000 nM, the IC50 (KDR) was > 1000 nM and the IC50 (H2073 (EGFR wildtype)) was > 1000 nM. The “Selectivity over wildtype, Wildtype vs mutant H2073/PC9 (fold)” value ([2]; cellular potency ratio) was 20-100 fold, the IC50 ([2]; cellular potency, 72-hour incubation, ATPLite, read-out: EGFR Mutants PC9) was 20 to 200 nM and the IC50 ([3]; Homo sapiens, NCI-H1975, cellular potency, 72-hour incubation, ATPLite, read-out: EGFR Mutants H1975) was 20 to 200 nM. The “Selectivity over wildtype, Wildtype vs mutant H2073/H1975 (fold)” value ([3]; cellular potency ratio) was 101-200 fold, the “inhibition against p-EGFR wildtype (in words)” value (p-EGFR wildtype; Western, FIG. 1) was “not p-EGFR wildtype” and the IC50 (p-EGFR wildtype; molecular potency, 4 hours, 3 nM EGF ligand) was > 1000 nM. For the same compound, the “Selectivity over wildtype: p-wildtype over p-EGFR del19” value (p-EGFR del E746-A750) was >200 fold, the “Selectivity over wildtype: p-wildtype over p-EGFR del19” value (p-EGFR del E746-A750; listed as compound 26) was 572.4 fold and the “inhibition against p-EGFR del E746-A750 (in words)” value (p-EGFR del E746-A750; Western, FIG. 1) was “potent inhibition”. The IC50 (p-EGFR del E746-A750; molecular potency, 4 hours, read-out: PC9 p-EGFR del 19 (E746-A750)) was < 20 nM, the “Selectivity over wildtype: p-wildtype over p-EGFR L858R, T790M” value (p-EGFR L858R/T790M) was >200 fold and the “Selectivity over wildtype: p-wildtype over p-EGFR L858R, T790M” value (p-EGFR L858R/T790M; listed as compound 26) was 1440.3 fold. The “inhibition against p-EGFR L858R/T790M (in words)” value (p-EGFR L858R/T790M; Western, FIG. 1) was “potent inhibition” and the IC50 (p-EGFR L858R/T790M; molecular potency, 4 hours) was < 20 nM.
